{
  "source": "patent US20220287964A1",
  "about": "“TOPICAL FORMULATIONS COMPRISING CANNABIDIOL, METHOD OF PREP ARING THE COMPOSITION AND USE THEREOF” (CS Medica A/S, priority 2019, published 2022)",
  "origin": "cited, not measured here",
  "conditions": "oral administration, given for comparison; cited from earlier work",
  "data": [
    {"smiles": "C=C(C)[C@@H]1CCC(C)=C[C@H]1c1c(O)cc(CCCCC)cc1O", "note": "[cannabidiol, Cannabidiol]", "values": [
      {"measurement": "Absorbed through the gastrointestinal passage", "result": "less than 10%"}
    ]}
  ]
}
